According to patent US5130485A, “N-hydroxy-N-(3-(2-substituted phenyl)prop-2-enyl)ureas and thioureas useful as 5-lipoxygenase inhibiting agents” (Eli Lilly and Company, priority 1991, dated 1992):

Legend:
5-LO [1] = assay: In vitro inhibition of 5-LO: Schultz-Dale reaction (ovalbumin-induced contraction of tracheal strips from actively sensitized guinea pigs); assay type: tissue-based, guinea pig (male Hartley); details: Cavia porcellus; sensitized guinea-pig tracheal strips; antigen (OA) 30 ng/ml; 30 min preincubation; indomethacin 5 μM, pyrilamine 10 μM
Protocol: Male, Hartley strain guinea-pigs (200-250 g) were actively sensitized by three injections of ovalbumin (OA, 10 mg/kg). The OA was administered intraperitoneally on Days 1 and 3 and subcutaneously on Day 5. In vitro experiments were performed 21-25 days later.
On the day of the experiment, guinea pigs were killed by asphyxiation with CO2 and the tracheas removed, cleaned of surrounding connective tissue and cut into sprial strips. Each strip was divided in half for paired experiments. Tissues were placed in 10 ml jacketed tissue baths maintained at 37° C. and attached with cotton thread to Grass force-displacement transducers (FT03C). […] Tracheal strips were bathed in modified Krebs' solution of the following composition (millimolar) NaCl, 118.2; KCl, 4.6; CaCl2.2H2 O, 2.5; MgSO4.7H2 O, 1.2; NaHCO3, 24.8; KH2 PO4, 1.0; and dextrose, 10.0. The buffer contained indomethacin (5 μM) which potentiated the contractions of the cysteinyl leukotrienes (LT) by removing the influence of cyclooxygenase products. The tissue baths were aerated with 95% O2 :5% CO2. Tracheal strips were placed under a resting tension of 2 g, and the tissues were allowed a minimal stabilization period of 60 minutes before undergoing experimentation. Bath fluid was changed at 15 minute intervals during the stabilization period.
Concentration-response curves
Cumulative concentration-response curves were obtained from tracheal strips by increasing the agonist concentration in the organ bath by half-log increments while the previous concentration remained in contact with the tissues van Rossum, Arch, Int. Pharmacodymn Ther., 143, 299-330 (1963). Agonist concentration was increased after reaching the plateau of the contraction elicited by the preceeding concentration. One concentration-response curve was obtained from each tissue. To minimize variability between tissues, contractile responses were expressed as a percentage of the maximal response obtained with carbachol (10 μM), added to the bath at the end of the concentration-response curve. Initially, tissues were challenged with carbachol (10 μM) following the 60 minute stabilization period to insure tissue viability. After recording the maximal response to the initial carbachol challenge, the tissues were washed and re-equilibrated for 60 minutes before starting the experimental protocol.
Determination of EC50 and % Inhibition
To evaluate the effects of novel 5-lipoxygenase inhibitors in the Schultz-Dale reaction, each compound was incubated with the tissues 30 minutes before starting the curves. Vehicle (DMSO) was given to the paired control tissue. Pyrilamine (10 μM) was added to all baths at this time to block the actions of released histamine. Responses obtained at the antigen concentration of 30 ng/ml were recorded in the absence and presence of drug and percent inhibition was calculated for each pair of tissues. IC50 values were determined by linear regression.
LT or carbachol concentration-response curves were used to determine specificity of the agent as a 5-lipoxygenase inhibitor. In these experiments the test compound was incubated as described above. EC50 values, which represent the molar concentration of agonist required to induce 50% of maximal response, was determined by linear regression. Differences in EC50 values, in the presence and absence of test compound were analyzed by Student's t-test with P<0.05 regarded as significant.

5-LO [2] = assay: In vivo inhibition of OA-induced increase in tracheal pressure in passively sensitized guinea pigs, oral dosing; parameters: species or system guinea pig (male Hartley); details: 2 hr, OA challenge; for inhibition in vivo at 30 mg/kg: Cavia porcellus, read-out: Inhibition of 5-LO In Vivo Percent Inhibition at 30 mg/kg, po, 2 hr.
Protocol: Male Hartley guinea pigs (350-500 g) were passively sensitized against ovalbumin by i.p. administration of 0.3 ml of antiserum 2 days preceeding the experiment. Hyperimmune serum was prepared from actively sensitizing male guinea pigs conditioned with 2 mg of ovalbumin in 50% Complete Freund's Adjuvant i.p. on days 1 and 5. On day 21, the animals were bled and the serum collected and stored at -20° C. On the day of the experiment the passively sensitized guinea pigs were anesthetized with 35 to 40 mg/kg of pentobarbital sodium given i.p. The right jugular vein was cannulated with Tygon microbore tubing (o.d.=03) connected to a syringe for administration of selected drugs. Blood pressure was measured with a Statham pressure transducer connected to a Tygon catheter placed in the left carotid artery. The trachea was cannulated and each animal was ventilated with room air by means of a Harvard rodent respirator set to deliver a tidal volume of 1 ml/100 g body weight with a rate of 60 breaths/minute. Succinylcholine (5 mg/kg) was given i.v. to suppress spontaneous respiration. Intratracheal pressure, an index of total pulmonary resistance, was measured with a Statham pressure transducer connected to a T-tube on the tracheal cannula. […] Body temperature was maintained within normal limits by means of a Deltaphase isothermal pad. Prior to surgery, test compound or vehicle (PEG 400) was administered to each guinea pig by oral gavage and OA challenge was at designated times following oral dosing. The animals were pretreated i.v. with pyrilamine (5 mg/kg), propranolol (1 mg/kg) and indomethacin (10 mg/kg) 5 minutes prior to the OA challenge. OA-induced increase in tracheal pressure was expressed as a percentage of the maximal pressure obtained by clamping the trachea with a hemistat. To determine the effect of each drug, a % inhibition value was calculated from the vehicle and drug treated animals at each concentration tested.

Row | SMILES | IC50 (5-LO [1]) | inhibition in vivo at 30 mg/kg (5-LO [2]) | Inhibition of 5-LO In Vivo Percent Inhibition (dose of 10 mg/kg) (5-LO [2]; 10 mg/kg (footnote a))
1 | C#CCSc1ccccc1C=CCN(O)C(N)=O [Example 1, N-hydroxy-N-[3-[2-(2-propynylthio)phenyl]prop-2-enyl]urea] | 2100 nM | 78% | 
2 | C#CCCSc1ccccc1C=CCN(O)C(N)=O [Example 2, N-hydroxy-N-[3-[2-(3-butynylthio)phenyl]prop-2-enyl]urea] | 1000 nM | 50% | 
3 | CC#CCSc1ccccc1C=CCN(O)C(N)=O [Example 3, N-hydroxy-N-[3-[2-(2-butynylthio)phenyl]prop-2-enyl]urea] | 600 nM |  | 30%
4 | C=CCCSc1ccccc1C=CCN(O)C(N)=O [Example 4, N-hydroxy-N-[3-[2-(3-butenylthio)phenyl]-prop-2-enyl]urea] | 390 nM | 81% | 
5 | NC(=O)N(O)CC=Cc1ccccc1SCC1CCCCC1 [Example 5, N-hydroxy-N-[3-[2-(cyclohexylmethylthio)phenyl]-prop-2-enyl]urea] | 1200 nM | 76% | 
6 | NC(=O)N(O)CC=Cc1ccccc1SCC1CC1 [Example 6, N-hydroxy-N-[3-[2-(cyclopropylmethylthio)phenyl]-prop-2-enyl]urea] | 620 nM | 75% | 
7 | C#CCOc1ccccc1C=CCN(O)C(N)=O [Example 7, N-hydroxy-N-[3-[2-(2-propynyloxy)phenyl]prop-2-enyl]urea] | 2400 nM | 93% | 
8 | C#CCSc1ccccc1C=C(C)CN(O)C(N)=O [Example 8, N-hydroxy-N-[2-methyl-3-[2-(2-propynylthio)phenyl]prop-2-enyl]urea] | 1800 nM | 51% | 
9 | C#CCSc1c(F)cccc1C=CCN(O)C(N)=O [Example 9, N-hydroxy-N-[3-[3-fluoro-2-(2-propynylthio)phenyl]prop-2-enyl]urea] | 1000 nM | 93% | 
